Patent EP1215499A1 (priority 1999, dated 2001)
*1 amine or outer side, *2 acyl side, *3 side chain or, on linkers, in order; H or OH if unused. Where a SMILES comes first, the peptide text is derived from it. [ ]: non-standard residue; d: D form. The star is where a group is joined. Sta = CC(C)C[C@H](N)[C@@H](O)CC(=O)O; AMC = Cc1cc(=O)oc2cc(N*)ccc12; Suc = O=C(CCC(=O)[*:2])[*:1]; Isovaleryl = CC(C)CC(=O)*; Boc = CC(C)(C)OC(=O)*

Experiments:
Format in all cases: biochemical
miniplasmin [1] = biological target: T1, miniplasmin (Homo sapiens, UniProt P00747); test: biochemical
T1 construct: 38kDa (Kringle 5 + L chain); the 12kDa protein of human miniplasmin includes a kringle 5 that begins with V^441; host or cells: no expression host
T1 sequence (P00747 481-560): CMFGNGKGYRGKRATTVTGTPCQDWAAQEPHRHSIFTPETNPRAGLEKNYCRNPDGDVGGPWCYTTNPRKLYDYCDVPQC
T1 sequence (P00747 581-810): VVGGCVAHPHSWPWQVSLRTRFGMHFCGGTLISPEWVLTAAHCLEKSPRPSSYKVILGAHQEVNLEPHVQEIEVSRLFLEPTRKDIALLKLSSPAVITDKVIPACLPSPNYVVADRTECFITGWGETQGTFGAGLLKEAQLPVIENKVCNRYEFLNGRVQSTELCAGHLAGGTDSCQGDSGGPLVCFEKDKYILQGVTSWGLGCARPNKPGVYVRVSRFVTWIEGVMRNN

miniplasmin [2] = biological target: T1, miniplasmin
miniplasmin [3] = biological target: T1, miniplasmin; test: Substrate specificity of human miniplasmin (cleavage of fluorescent MCA synthetic substrates); conditions: for Activity (mU/ml): cleavage of the named substrate by human miniplasmin; for cleaving activity of miniplasmin toward the substrate: result in words
Description: 2. […] Miniplasmin cut the bond after Arg.
Nor did it toward Bz-Arg-MCA, a synthetic substrate for cathepsin B, which is one of lysosomal enzymes.
The activity of miniplasmin was quantified by defining the enzyme activity that can degrade […] of the synthetic substrate Boc-Glu-Ala-Arg-MCA in 1 minute as 1 unit.

miniplasmin [4] = biological target: T1, miniplasmin; test: as above; conditions: Boc-Gln-Ala-Arg-MCA = 100%

For `N=C(N)c1ccccc1` [Benzamidine], the “inhibition mark (circle / double circle)” value (miniplasmin [1]) was “○ Benzamidine”, the activity at 10 µM (miniplasmin [1]; read-out: Relative activity) was 67.6% and the activity at 1000 µM (miniplasmin [1]; read-out: Relative activity) was 22.9%. For the same compound, the “transformation of F0 into F1 and F2” value (miniplasmin [2]) was “substantially prevented”.
With `Cc1cc(=O)oc2cc(NC(=O)[C@H](CCCNC(=N)N)NC(=O)[C@@H]3CCCN3C(=O)CNC(=O)[C@H](C)NC(=O)OC(C)(C)C)ccc12` [Boc-Ala-Gly-Pro-Arg-MCA] (Boc-AGPR-{AMC}) the “Activity (mU/ml)” value (miniplasmin [3]) was 2.5 mU/ml.
With `Cc1cc(=O)oc2cc(NC(=O)[C@H](CCCNC(=N)N)NC(=O)[C@H](C)NC(=O)[C@H](CCC(N)=O)NC(=O)OC(C)(C)C)ccc12` [Boc-Gln-Ala-Arg-MCA] (Boc-Gln-Ala-Arg-{AMC}) the “Activity (mU/ml)” value (miniplasmin [3]) was 32.3 mU/ml.
In the case of `Cc1cc(=O)oc2cc(NC(=O)[C@H](CCCNC(=N)N)NC(=O)[C@H](CCCNC(=N)N)NC(=O)[C@H](CCC(N)=O)NC(=O)OC(C)(C)C)ccc12` [Boc-Gln-Arg-Arg-MCA] (Boc-Gln-Arg-Arg-{AMC}), the “Activity (mU/ml)” value (miniplasmin [3]) is reported as 16.1 mU/ml.
For `Cc1cc(=O)oc2cc(NC(=O)[C@H](CCCNC(=N)N)NC(=O)CNC(=O)[C@H](CCC(N)=O)NC(=O)OC(C)(C)C)ccc12` [Boc-Gln-Gly-Arg-MCA] (Boc-Gln-Gly-Arg-{AMC}), the “Activity (mU/ml)” value (miniplasmin [3]) was 8.1 mU/ml.
In the case of `Cc1cc(=O)oc2cc(NC(=O)[C@H](CCCCN)NC(=O)[C@H](CCCCN)NC(=O)[C@H](CCC(=O)O)NC(=O)OC(C)(C)C)ccc12` [Boc-Glu-Lys-Lys-MCA] (Boc-Glu-Lys-Lys-{AMC}), the “Activity (mU/ml)” value (miniplasmin [3]) is reported as 50.3 mU/ml and the “cleaving activity of miniplasmin toward the substrate” value (shortened to “cleaving activity”) (miniplasmin [3]) is reported as “highest cleaving activity”.
In the case of `Cc1cc(=O)oc2cc(NC(=O)[C@H](CCCNC(=N)N)NC(=O)[C@H](CCCCN)NC(=O)CNC(=O)OC(C)(C)C)ccc12` [Boc-Gly-Lys-Arg-MCA] (Boc-Gly-Lys-Arg-{AMC}), the “Activity (mU/ml)” value (miniplasmin [3]) is reported as 3.1 mU/ml.
`Cc1cc(=O)oc2cc(NC(=O)[C@H](CCCNC(=N)N)NC(=O)[C@H](CCCNC(=N)N)NC(=O)[C@H](CC(C)C)NC(=O)OC(C)(C)C)ccc12` [Boc-Leu-Arg-Arg-MCA] (Boc-Leu-Arg-Arg-{AMC}) was tested, and the “Activity (mU/ml)” value (miniplasmin [3]) was 3.1 mU/ml.
`Cc1cc(=O)oc2cc(NC(=O)[C@H](CCCNC(=N)N)NC(=O)[C@@H](NC(=O)[C@H](CC(C)C)NC(=O)OC(C)(C)C)[C@@H](C)O)ccc12` [Boc-Leu-Thr-Arg-MCA] (Boc-Leu-Thr-Arg-{AMC}) was tested, and the “Activity (mU/ml)” value (miniplasmin [3]) was 3.4 mU/ml.
For `Cc1cc(=O)oc2cc(NC(=O)[C@H](CCCNC(=N)N)NC(=O)[C@H](CO)NC(=O)[C@H](Cc3ccccc3)NC(=O)OC(C)(C)C)ccc12` [Boc-Phe-Ser-Arg-MCA] (Boc-Phe-Ser-Arg-{AMC}), the “Activity (mU/ml)” value (miniplasmin [3]) was 5.0 mU/ml.
In the case of `Cc1cc(=O)oc2cc(NC(=O)[C@H](CCCCN)NC(=O)[C@H](CC(C)C)NC(=O)[C@@H](NC(=O)OC(C)(C)C)C(C)C)ccc12` [Boc-Val-Leu-Lys-MCA] (Boc-Val-Leu-Lys-{AMC}), the “Activity (mU/ml)” value (miniplasmin [3]) is reported as 17.7 mU/ml and the “% (Activity as a percentage of that with Boc-Gln-Ala-Arg-MCA)” value (miniplasmin [4]) is reported as 54.8%.
In the case of `Cc1cc(=O)oc2cc(NC(=O)[C@H](CCCNC(=N)N)NC(=O)[C@@H]3CCCN3C(=O)[C@@H](NC(=O)OC(C)(C)C)C(C)C)ccc12` [Boc-Val-Pro-Arg-MCA] (Boc-Val-Pro-Arg-{AMC}), the “Activity (mU/ml)” value (miniplasmin [3]) is reported as 5.0 mU/ml.
`Cc1cc(=O)oc2cc(NC(=O)[C@H](CCCNC(=N)N)NC(=O)c3ccccc3)ccc12` [Bz-Arg-MCA] was tested, and the “Activity (mU/ml)” value (miniplasmin [3]) was 0.0 mU/ml and the “cleaving activity” value (miniplasmin [3]) was “substantially no cleaving activity”.
For `CC(C)C[C@H](NC(=O)[C@@H](NC(=O)N[C@@H](Cc1ccccc1)C(=O)O)C1CCN=C(N)N1)C(=O)N[C@H](C=O)Cc1ccccc1` (some centres unmarked) [Cymostatin], the activity at 10 µM (miniplasmin [1]; read-out: Relative activity) was 100%.
Compound `CC(C)CC(NC(=O)C1OC1C(=O)O)C(=O)NCCCCNC(=N)N` (centres unmarked) [E-64] has an activity at 10 µM (miniplasmin [1]; read-out: Relative activity) of 61.5%.
`CC(C)C[C@H](NC(=O)N[C@H](C(=O)N[C@@H](CCC(N)=O)C(=O)N[C@@H](C)C=O)[C@@H]1CCNC(=N)N1)C(=O)O` [Elastatinal] showed an activity at 10 µM (miniplasmin [1]; read-out: Relative activity) of 69.2%.
With `CC(=O)N[C@@H](CC(C)C)C(=O)N[C@@H](CC(C)C)C(=O)N[C@H](C=O)CCCNC(=N)N` [Leupeptin] the “inhibition mark (circle / double circle)” value (miniplasmin [1]) was “ⓞ Leupeptin” and the activity at 10 µM (miniplasmin [1]; read-out: Relative activity) was 18.6%.
Work on `CC(C)CC(=O)N[C@H](C(=O)N[C@H](C(=O)N[C@@H](CC(C)C)[C@@H](O)CC(=O)N[C@@H](C)C(=O)N[C@@H](CC(C)C)[C@@H](O)CC(=O)O)C(C)C)C(C)C` [Pepstatin A] (Isovaleryl-VV[Sta]A[Sta]-OH) yielded an activity at 10 µM (miniplasmin [1]; read-out: Relative activity) of 64%.
For `O=S(=O)(F)Cc1ccccc1` [Phenylmethylsulfonyl fluoride], the “inhibition mark (circle / double circle)” value (miniplasmin [1]) was “○ Phenylmethylsulfonyl fluoride”, the Relative activity (miniplasmin [1]; 1000 µM) was 95.1% and the Relative activity (miniplasmin [1]; 10000 µM) was 29.5%.
In the case of `CC(C)C[C@H](NP(=O)(O)O[C@@H]1O[C@@H](C)[C@H](O)[C@@H](O)[C@H]1O)C(=O)N[C@@H](Cc1c[nH]c2ccccc12)C(=O)O` [Phosphoramidon], the activity at 10 µM (miniplasmin [1]; read-out: Relative activity) is reported as 100%.
In the case of `Cc1cc(=O)oc2cc(NC(=O)[C@H](CCCNC(=N)N)NC(=O)[C@H](Cc3ccccc3)NC(=O)[C@@H]3CCCN3)ccc12` [Pro-Phe-Arg-MCA] (H-Pro-Phe-Arg-{AMC}), the “Activity (mU/ml)” value (miniplasmin [3]) is reported as 5.0 mU/ml.
With `Cc1cc(=O)oc2cc(NC(=O)[C@H](Cc3ccccc3)NC(=O)[C@@H]3CCCN3C(=O)[C@H](C)NC(=O)[C@H](C)NC(=O)CCC(=O)O)ccc12` [Suc-Ala-Ala-Pro-Phe-MCA] (Suc-AAPF-{AMC}) the “Activity (mU/ml)” value (miniplasmin [3]) was 0.0 mU/ml.
With `Cc1cc(=O)oc2cc(NC(=O)[C@H](Cc3ccc(O)cc3)NC(=O)[C@@H](NC(=O)[C@H](CC(C)C)NC(=O)[C@H](CC(C)C)NC(=O)CCC(=O)O)C(C)C)ccc12` [Suc-Leu-Leu-Val-Tyr-MCA] (Suc-LLVY-{AMC}) the “Activity (mU/ml)” value (miniplasmin [3]) was 0.0 mU/ml.
“Boc-Ile-Gln-Gly-Arg-MCA (Boc-IQGR-{AMC})” was tested, and the “Activity (mU/ml)” value (miniplasmin [3]) was 1.6 mU/ml, the “cleaving activity” value (miniplasmin [3]) was “substantially no cleaving activity” and the “% (Activity as a percentage of that with Boc-Gln-Ala-Arg-MCA)” value (miniplasmin [4]) was 4.8%.
